From patent US11591355B2 (Peloton Therapeutics, Inc., priority 2017, dated 2023) come the findings set out here.

One experiment concerns the target T1, Human CD73 (Homo sapiens, UniProt P21589).
T1 construct: purchased R&D Systems; host or cells: CHO cells
T1 sequence (P21589 27-549): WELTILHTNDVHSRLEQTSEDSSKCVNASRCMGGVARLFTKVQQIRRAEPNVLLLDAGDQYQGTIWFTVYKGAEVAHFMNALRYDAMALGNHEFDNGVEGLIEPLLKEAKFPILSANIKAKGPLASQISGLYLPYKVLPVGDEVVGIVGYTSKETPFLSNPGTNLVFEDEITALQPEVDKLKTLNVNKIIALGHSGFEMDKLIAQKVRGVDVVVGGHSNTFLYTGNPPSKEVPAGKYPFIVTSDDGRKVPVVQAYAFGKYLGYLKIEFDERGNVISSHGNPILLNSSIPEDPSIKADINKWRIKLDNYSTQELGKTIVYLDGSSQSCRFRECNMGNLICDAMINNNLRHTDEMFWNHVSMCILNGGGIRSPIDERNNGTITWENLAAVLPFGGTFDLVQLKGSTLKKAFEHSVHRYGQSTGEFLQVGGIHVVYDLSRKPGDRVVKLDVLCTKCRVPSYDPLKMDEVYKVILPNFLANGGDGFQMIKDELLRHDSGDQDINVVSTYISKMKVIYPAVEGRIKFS
Put plainly: CD73 Enzyme Assay. Format: biochemical. The conditions noted are these: 0.25 nM hCD73, 25 μM AMP, kinetic read at 360 nm; read-out: CD73 Enzyme Assay IC50.

Experiment [1] addresses T2, CD73 on U138 human neuroglioma cells (Homo sapiens, UniProt P21589).
T2 construct: U138 cells were obtained from ATCC and cultured in DMEM with 10% FBS; host or cells: U138 human neuroglioma cells
T2 sequence (P21589 27-549): T1 sequence (P21589 27-549)
Put plainly: CD73 Cell-Based Assay. The conditions noted are these: U138 cells, AMP substrate, 2 hours at 37° C., inorganic phosphate by malachite green. The method in brief:
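Whole U138 cells washed free of phosphate were incubated with 200 μM AMP (mixture concentration before equal-volume addition) plus compound in HEPES-buffered saline, pH 7.4, for 2 h at 37 °C, 5% CO2. Adenosine-forming activity read as inorganic phosphate released into supernatant by malachite green.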

A word on the IC50: it is the concentration needed to halve the response being measured. Take `CC(C)Nc1nc(Cl)nc2c1ccn2[C@@H]1O[C@H](COCP(=O)(O)O)[C@@H](O)[C@H]1O` [Compound 92, [(2R,3S,4R,5R)-5-[2-chloro-4-(isopropyl-amino)pyrrolo[2,3-d]-pyrimidin-7-yl]-3,4-dihydroxy-tetrahydro-furan-2-yl]methoxy-methylphosphonic acid]: the IC50 (on Human CD73; in experiment [1]) was < 10 nM in each case.
For the compound `N#Cc1nc(N2CCC(F)(F)CC2)c2ccn([C@@H]3O[C@H](COCP(=O)(O)O)[C@@H](O)[C@H]3O)c2n1` [Compound 129, [(2R,3S,4R,5R)-5-[2-cyano-4-(4,4-difluoro-1-piperidyl)pyrrolo-[2,3-d]pyrimidin-7-yl]-3,4-dihydroxy-tetrahydrofuran-2-yl]-methoxymethylphos-phonic acid], the IC50 (at Human CD73; in experiment [1]) was 10 to 100 nM throughout.
Consider `CCNc1nc(C#N)nc2c1ccn2[C@@H]1O[C@H](COCP(=O)(O)O)[C@@H](O)[C@H]1O` [Compound 108, [(2R,3S,4R,5R)-5-[2-cyano-4-(ethylamino)-pyrrolo[2,3-d]-pyrimidin-7-yl]-3,4-dihydroxy-tetrahydro-furan-2-yl]methoxy-methylphosphonic acid], for which the IC50 (at Human CD73; in experiment [1]) was 10 to 100 nM throughout.
In the case of `O=P(O)(O)COC[C@H]1O[C@@H](n2ccc3c(N4CC5CC5C4)nc(Cl)nc32)[C@H](O)[C@@H]1O` (stereo partly drawn) [Compound 105, [(2R,3S,4R,5R)-5-[4-(3-azabicyclo[3.1.0]-hexan-3-yl)-2-chloro-pyrrolo[2,3-d]-pyrimidin-7-yl]-3,4-dihydroxy-tetrahydro-furan-2-yl]methoxy-methylphosphonic acid], the IC50 (on Human CD73; in experiment [1]) was < 10 nM in each case.
As for `COc1nc(NC2CCCC2)c2ccn([C@@H]3O[C@H](COCP(=O)(O)O)[C@@H](O)[C@H]3O)c2n1` [Compound 247, [(2R,3S,4R,5R)-5-[4-(cyclopentylamino)-2-methoxy-pyrrolo[2,3-d]pyrimidin-7-yl]-3,4-dihydroxy-tetrahydro-furan-2-yl]methoxy-methylphosphonic acid], the IC50 (on Human CD73; in experiment [1]) was 10 to 100 nM throughout.
With `N#Cc1nc(N2CCCCC2)c2ccn([C@@H]3O[C@H](COCP(=O)(O)O)[C@@H](O)[C@H]3O)c2n1` [Compound 143, [(2R,3S,4R,5R)-5-[2-cyano-4-(1-piperidyl)-pyrrolo[2,3-d]-pyrimidin-7-yl]-3,4-dihydroxy-tetrahydro-furan-2-yl]methoxy-methylphosphonic acid], the IC50 is < 10 nM on Human CD73 and 10 to 100 nM in experiment [1].
The like results for `N#Cc1cn([C@@H]2O[C@H](COCP(=O)(O)O)[C@@H](O)[C@H]2O)c2nc(Cl)nc(NC3CCCC3)c12` [Compound 209, [(2R,3S,4R,5R)-5-[2-chloro-5-cyano-4-(cyclopentylamino)-pyrrolo[2,3-d]-pyrimidin-7-yl]-3,4-dihydroxy-tetrahydro-furan-2-yl]methoxy-methylphosphonic acid] were, in that order, 100 to 1000 nM and 100 to 1000 nM.
The corresponding values for `CC(C)C(=O)OCOP(=O)(O)COC[C@H]1O[C@@H](n2ccc3c(NC4CCCC4)nc(Cl)nc32)[C@H](O)[C@@H]1O` [Compound 194, [(2R,3S,4R,5R)-5-[2-chloro-4-(cyclopentyl-amino)pyrrolo[2,3-d]-pyrimidin-7-yl]-3,4-dihydroxy-tetrahydro-furan-2-yl]methoxy-methyl-(2-methyl-propanoyloxymeth-oxy)phosphinic acid] are < 10 nM and < 10 nM.
On to `O=P(O)(O)COC[C@H]1O[C@@H](n2ccc3c(NC4CCCC4)nc(C#CCO)nc32)[C@H](O)[C@@H]1O` [Compound 243, [(2R,3S,4R,5R)-5-[4-(cyclopentylamino)-2-(3-hydroxyprop-1-ynyl)pyrrolo[2,3-d]-pyrimidin-7-yl]-3,4-dihydroxy-tetrahydro-furan-2-yl]methoxy-methylphosphonic acid], for which the IC50 (at Human CD73; in experiment [1]) was < 10 nM each time.
Regarding `CC#Cc1nc(NC2CCCC2)c2ccn([C@@H]3O[C@H](COCP(=O)(O)O)[C@@H](O)[C@H]3O)c2n1` [Compound 266, [(2R,3S,4R,5R)-5-[4-(cyclopentylamino)-2-prop-1-ynyl-pyrrolo-[2,3-d]pyrimidin-7-yl]-3,4-dihydroxy-tetrahydrofuran-2-yl]-methoxymethylphos-phonic acid], the half-inhibitory concentration (IC50) (at Human CD73; in experiment [1]) was < 10 nM in each case.
With `C[C@@H](Nc1nc(Cl)nc2c1ccn2[C@@H]1O[C@H](CS(=O)(=O)CP(=O)(O)O)[C@@H](O)[C@H]1O)c1ccccc1F` [Compound 168, [(2S,3S,4R,5R)-5-[2-chloro-4-[[(1R)-1-(2-fluorophenyl)ethyl]-amino]pyrrolo[2,3-d]-pyrimidin-7-yl]-3,4-dihydroxy-tetrahydro-furan-2-yl]methyl-sulfonylmethylphos-phonic acid], the IC50 (at Human CD73; in experiment [1]) was < 10 nM in each case.
On to `N#Cc1nc(N2CC3CC3C2)c2cnn([C@@H]3O[C@H](CS(=O)(=O)CP(=O)(O)O)[C@@H](O)[C@H]3O)c2n1` (stereo partly drawn) [Compound 288, [(2S,3S,4R,5R)-5-[4-(3-azabicyclo[3.1.0]-hexan-3-yl)-6-cyano-pyrazolo[3,4-d]-pyrimidin-1-yl]-3,4-dihydroxy-tetrahydro-furan-2-yl]methyl-sulfonylmethylphos-phonic acid], for which the half-maximal inhibitory concentration (IC50) (at Human CD73; in experiment [1]) was 10 to 100 nM each time.
On to `CCN(c1nc(Cl)nc2c1ccn2[C@@H]1O[C@H](COCP(=O)(O)O)[C@@H](O)[C@H]1O)C1CCCC1` [Compound 195, [(2R,3S,4R,5R)-5-[2-chloro-4-[cyclopentyl-(ethyl)amino]pyrrolo-[2,3-d]pyrimidin-7-yl]-3,4-dihydroxy-tetra-hydrofuran-2-yl]-methoxymethylphos-phonic acid], for which the half-maximal inhibitory concentration (IC50) (on Human CD73; in experiment [1]) was < 10 nM throughout.
For `C[C@H](Nc1nc(Cl)nc2c1ccn2[C@@H]1O[C@H](CS(=O)(=O)CP(=O)(O)O)[C@@H](O)[C@H]1O)c1ccccc1` [Compound 153, [(2S,3S,4R,5R)-5-[2-chloro-4-[[(1S)-1-phenylethyl]amino]-pyrrolo[2,3-d]-pyrimidin-7-yl]-3,4-dihydroxy-tetrahydro-furan-2-yl]methyl-sulfonylmethylphos-phonic acid], the figures for the IC50 (at Human CD73; in experiment [1]) were < 10 nM and 10 to 100 nM, respectively.
Take `C[C@H](Nc1nc(Cl)nc2c1cnn2[C@@H]1O[C@H](COCP(=O)(O)O)[C@@H](O)[C@H]1O)c1ccc(F)cc1` [Compound 265, [(2R,3S,4R,5R)-5-[6-chloro-4-[[(1S)-1-(4-fluorophenyl)ethyl]-amino]pyrazolo[3,4-d]-pyrimidin-1-yl]-3,4-dihydroxy-tetrahydro-furan-2-yl]methoxy-methylphosphonic acid]: the IC50 (at Human CD73; in experiment [1]) was 10 to 100 nM throughout.
As for `Cc1ccc([C@H](C)Nc2nc(Cl)nc3c2ccn3[C@@H]2O[C@H](COCP(=O)(O)O)[C@@H](O)[C@H]2O)cc1` [Compound 90, [(2R,3S,4R,5R)-5-[2-chloro-4-[[(1S)-1-(p-tolyl)ethyl]amino]-pyrrolo[2,3-d]-pyrimidin-7-yl]-3,4-dihydroxy-tetrahydro-furan-2-yl]methoxy-methylphosphonic acid], the concentration for half-maximal inhibition (IC50) (on Human CD73; in experiment [1]) was < 10 nM throughout.
For `O=P(O)(O)COC[C@H]1O[C@@H](n2ccc3c(NC4CCCC4)nc(C#CC4CC4)nc32)[C@H](O)[C@@H]1O` [Compound 255, [(2R,3S,4R,5R)-5-[4-(cyclopentylamino)-2-(2-cyclopropyl-ethynyl)pyrrolo[2,3-d]-pyrimidin-7-yl]-3,4-dihydroxy-tetrahydro-furan-2-yl]methoxy-methylphosphonic acid], the concentration for half-maximal inhibition (IC50) (at Human CD73; in experiment [1]) was < 10 nM in each case.
Take `C[C@@H](Nc1nc(C#N)nc2c1ccn2[C@@H]1O[C@H](COCP(=O)(O)O)[C@@H](O)[C@H]1O)c1ccc(F)cc1F` [Compound 189, [(2R,3S,4R,5R)-5-[2-cyano-4-[[(1R)-1-(2,4-difluorophenyl)ethyl]-amino]pyrrolo[2,3-d]-pyrimidin-7-yl]-3,4-dihydroxy-tetrahydro-furan-2-yl]methoxy-methylphosphonic acid]: the IC50 (on Human CD73; in experiment [1]) was < 10 nM throughout.
Take `C[C@H](Nc1nc(C#N)nc2c1ncn2[C@@H]1O[C@H](COCP(=O)(O)O)[C@@H](O)[C@H]1O)c1ccccc1` [Compound 36, [(2R,3S,4R,5R)-5-[2-cyano-6-[[(1S)-1-phenylethyl]amino]purin-9-yl]-3,4-dihydroxy-tetrahydrofuran-2-yl]methoxymethylphosphonic acid; 2,2,2-trifluoroacetic acid]: the IC50 (on Human CD73; in experiment [1]) was 10 to 100 nM in each case.
In the case of `CC(C)Nc1nc(C#N)nc2c1ncn2[C@@H]1O[C@H](COCP(=O)(O)O)[C@@H](O)[C@H]1O` [Compound 16, [(2R,3S,4R,5R)-5-[2-cyano-6-(isopropyl-amino)purin-9-yl]-3,4-dihydroxy-tetrahydrofuran-2-yl]methoxymethyl-phosphonic acid], the IC50 fell in the range of 10 to 100 nM on Human CD73 and 100 to 1000 nM in experiment [1].
